From US9157121B2, “Method of treatment based on polymorphisms of the KCNQ1 gene” (Vanda Pharmaceuticals, Inc., priority 2009, dated 2015)
Values joined by “and” are separate entries in the source; they are usually repeats but may differ in a detail not shown here. Equal values may be shown once.

Experiments:
QT interval = experiment: QT prolongation following iloperidone in 174 individuals genotyped at SNP_A-2279707 (rs179407); assay type: in vivo, human; settings: oral 24 mg/day B.I.D. for two weeks; for High QT, + test (number of individuals) / Low QT, + test (number of individuals): rs179407 genotype TT; for High QT, − test (number of individuals) / Low QT, − test (number of individuals): rs179407 genotype not TT; for Odds Ratio: rs179407 TT versus not TT
QTc interval [1] = settings: cited from earlier work
QTc interval [2] = experiment: QTcF change following iloperidone or ziprasidone administration, by KCNQ1 and CYP2D6 genotype; assay type: in vivo, human; settings: for QTcFmax Change: change from baseline
Method: The DNA variants in KCNQ1 noted above were examined for correlation with iloperidone-induced QT prolongation.
Individuals from an earlier study of CYP2D6 genotypes and a predisposition to QT prolongation were genotyped at each of the KCNQ1 SNPs above. 22 individuals had been given a dose of 8 mg of iloperidone b.i.d., 30 had been given 12 mg b.i.d., and 22 had been given 24 mg q.d.
The results were similar when ziprasidone was administered at a dosage of 80 mg b.i.d. The QTc changes for each genotype are shown below in Tables 4 and 5.
Tables 10 and 11 below show CYP2D6 metabolizer status against QTcFmax change from baseline for individuals having GG and non-GG genotypes, respectively, at the KCNQ1 79764 position SNP.
In order to assess the CYP2D6 component to such prolongation, QTc change was separately compared to the CYP2D6G1846A and CYP2D6C100T polymorphisms.
Tables 14 and 15 below show QTc changes in individuals grouped according to their KCNQ1 79764, CYP2D6G1846A, and CYP2D6C100T genotypes. […] Similarly, individuals who were GG at KCNQ1 79764 and had one or two mutant alleles at the CYP2D6 loci (i.e., AG or AA at CYP2D6G1846A and CT or TT at CYP2D6C100T) experienced the greatest QT prolongation.

CYP2D6 = CYP2D6 (Homo sapiens, UniProt P10635); settings: cited from earlier work
QTc interval [3] = settings: cited from earlier work; for QTc prolongation: comparison of several antipsychotics

Sequence of CYP2D6 (P10635 whole entry): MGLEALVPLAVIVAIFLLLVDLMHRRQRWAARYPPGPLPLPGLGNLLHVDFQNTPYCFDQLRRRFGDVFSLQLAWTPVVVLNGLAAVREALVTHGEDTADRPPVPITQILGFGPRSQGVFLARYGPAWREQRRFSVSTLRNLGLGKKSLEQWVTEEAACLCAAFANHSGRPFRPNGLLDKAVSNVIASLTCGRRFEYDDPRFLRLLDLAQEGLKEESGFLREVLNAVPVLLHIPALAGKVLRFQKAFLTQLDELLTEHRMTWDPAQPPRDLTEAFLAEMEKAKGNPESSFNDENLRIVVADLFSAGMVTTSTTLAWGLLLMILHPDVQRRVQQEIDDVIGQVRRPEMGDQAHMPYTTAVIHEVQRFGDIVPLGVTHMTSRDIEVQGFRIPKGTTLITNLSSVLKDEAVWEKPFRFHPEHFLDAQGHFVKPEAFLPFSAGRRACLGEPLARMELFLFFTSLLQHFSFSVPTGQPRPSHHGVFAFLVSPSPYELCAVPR

COc1cc(C(C)=O)ccc1OCCCN1CCC(c2noc3cc(F)ccc23)CC1 [Iloperidone]
High QT, + test (number of individuals) (QT interval; threshold QT > 5 msec): 102 | Low QT, + test (number of individuals) (QT interval; threshold QT > 5 msec): 47 | High QT, − test (number of individuals) (QT interval; threshold QT > 5 msec): 15 | Low QT, − test (number of individuals) (QT interval; threshold QT > 5 msec): 19 | Odds Ratio (QT interval; threshold QT > 5 msec): 2.749 | High QT, + test (number of individuals) (QT interval; threshold QT > 15 msec): 64 | Low QT, + test (number of individuals) (QT interval; threshold QT > 15 msec): 85 | High QT, − test (number of individuals) (QT interval; threshold QT > 15 msec): 9 | Low QT, − test (number of individuals) (QT interval; threshold QT > 15 msec): 25 | Odds Ratio (QT interval; threshold QT > 15 msec): 2.092 | High QT, + test (number of individuals) (QT interval; threshold QT > 30 msec): 26 | Low QT, + test (number of individuals) (QT interval; threshold QT > 30 msec): 123 | High QT, − test (number of individuals) (QT interval; threshold QT > 30 msec): 2 | Low QT, − test (number of individuals) (QT interval; threshold QT > 30 msec): 32 | Odds Ratio (QT interval; threshold QT > 30 msec): 3.382 | effect on the QTcF duration with metabolic inhibition (QTc interval [1]; adding an inhibitor of CYP2D6): increases the effect of iloperidone on the QTcF duration | effect on QTc duration (QTc interval [1]; in vivo): some effects on QTc duration | QTcFmax Change (QTc interval [2]; KCNQ1 79764 genotype GG, CYP2D6 metabolizer status Extensive): 16.4 ms | QTcFmax Change (QTc interval [2]; KCNQ1 79764 genotype GG, CYP2D6 metabolizer status Intermediate): 18.1 ms | QTcFmax Change (QTc interval [2]; KCNQ1 79764 genotype GG, CYP2D6 metabolizer status Poor): 33.6 ms | QTcFmax Change (QTc interval [2]; KCNQ1 79764 genotype Non-GG, CYP2D6 metabolizer status Extensive): 8.3 ms | QTcFmax Change (QTc interval [2]; KCNQ1 79764 genotype Non-GG, CYP2D6 metabolizer status Intermediate): 3.1 ms | QTcFmax Change (QTc interval [2]; KCNQ1 79764 genotype Non-GG, CYP2D6 metabolizer status Poor): 24.6 ms | QTcF change (QTc interval [2]; iloperidone 8 mg b.i.d., 12 mg b.i.d. or 24 mg q.d., KCNQ1 79764 SNP genotype CC): 10.38 ms | QTcF change (QTc interval [2]; iloperidone 8 mg b.i.d., 12 mg b.i.d. or 24 mg q.d., KCNQ1 79764 SNP genotype CG): 6.80 ms | QTcF change (QTc interval [2]; iloperidone 8 mg b.i.d., 12 mg b.i.d. or 24 mg q.d., KCNQ1 79764 SNP genotype GG): 17.58 ms | QTcF change (QTc interval [2]; iloperidone 8 mg b.i.d., 12 mg b.i.d. or 24 mg q.d., KCNQ1 79764 SNP genotype Non-GG): 7.83 ms | QTcF change (QTc interval [2]; iloperidone, CYP2D6C100T genotype CC): 10.8 ms | QTcF change (QTc interval [2]; iloperidone, CYP2D6C100T genotype CT): 16.9 ms | QTcF change (QTc interval [2]; iloperidone, CYP2D6C100T genotype Non-CC): 19.2 ms | QTcF change (QTc interval [2]; iloperidone, CYP2D6C100T genotype TT): 31.3 ms | QTcF change (QTc interval [2]; iloperidone, CYP2D6G1846A genotype AA): 41.6 ms | QTcF change (QTc interval [2]; iloperidone, CYP2D6G1846A genotype AG): 15.9 ms | QTcF change (QTc interval [2]; iloperidone, CYP2D6G1846A genotype GG): 11.1 ms | QTcF change (QTc interval [2]; iloperidone, CYP2D6G1846A genotype Non-GG): 18.5 ms | QTcF change (QTc interval [2]; iloperidone, KCNQ1 78927 position SNP genotype AA): 7.21 ms | QTcF change (QTc interval [2]; iloperidone, KCNQ1 78927 position SNP genotype AC): 9.19 ms | QTcF change (QTc interval [2]; iloperidone, KCNQ1 78927 position SNP genotype CC): 14.08 ms | QTcF change (QTc interval [2]; iloperidone, KCNQ1 78927 position SNP genotype Non-CC): 6.46 ms | QTcF change (QTc interval [2]; iloperidone, KCNQ1 79764 GG and CYP2D6C100T CC): 19.2 (n = 15) msec | QTcF change (QTc interval [2]; iloperidone, KCNQ1 79764 GG and CYP2D6C100T non-CC): 23.5 (n = 10) msec | QTcF change (QTc interval [2]; iloperidone, KCNQ1 79764 GG and CYP2D6G1846A GG): 19.5 (n = 15) msec | QTcF change (QTc interval [2]; iloperidone, KCNQ1 79764 GG and CYP2D6G1846A non-GG): 25.5 (n = 10) msec | average QTc change, GG genotype relative to non-GG genotype (QTc interval [2]; iloperidone, KCNQ1 79764 SNP): more than twice the change in individuals with a non-GG genotype | QTcF change (QTc interval [2]; iloperidone, KCNQ1 79764 non-GG and CYP2D6C100T CC): 7.4 (n = 35) msec | QTcF change (QTc interval [2]; iloperidone, KCNQ1 79764 non-GG and CYP2D6C100T non-CC): 12.6 (n = 7) msec | QTcF change (QTc interval [2]; iloperidone, KCNQ1 79764 non-GG and CYP2D6G1846A GG): 7.6 (n = 34) msec | QTcF change (QTc interval [2]; iloperidone, KCNQ1 79764 non-GG and CYP2D6G1846A non-GG): 9.6 (n = 6) msec | QTcF change (QTc interval [2]; iloperidone, KCNQ1 286414 position SNP genotype AA): 12.50 ms and 12.51 ms | QTcF change (QTc interval [2]; iloperidone, KCNQ1 286414 position SNP genotype AG): 3.15 ms | QTcF change (QTc interval [2]; iloperidone, KCNQ1 286414 position SNP genotype GG): 10.34 ms | QTcF change (QTc interval [2]; iloperidone, KCNQ1 286414 position SNP genotype Non-AA): 5.16 ms | metabolizing enzyme (CYP2D6): metabolized by CYP2D6

OCCOCCN1CCN(C2=Nc3ccccc3Sc3ccccc32)CC1 [Quetiapine]
QTc prolongation (QTc interval [3]): associated with a prolongation of the QTc interval

O=C1Cc2cc(CCN3CCN(c4nsc5ccccc45)CC3)c(Cl)cc2N1 [Ziprasidone, ziprasidone]
QTcF change (QTc interval [2]; ziprasidone 80 mg b.i.d., KCNQ1 79764 SNP genotype CC): 8.30 ms | QTcF change (QTc interval [2]; ziprasidone 80 mg b.i.d., KCNQ1 79764 SNP genotype CG): 6.19 ms | QTcF change (QTc interval [2]; ziprasidone 80 mg b.i.d., KCNQ1 79764 SNP genotype GG): 15.32 ms | QTcF change (QTc interval [2]; ziprasidone 80 mg b.i.d., KCNQ1 79764 SNP genotype Non-GG): 6.75 ms | QTc prolongation (QTc interval [3]): highest degree of QTc prolongation, followed by ziprasidone

O=C(CCCN1CCC(O)(c2ccc(Cl)cc2)CC1)c1ccc(F)cc1 [haloperidol]
increase in QTc with metabolic inhibition (QTc interval [3]; with metabolic inhibitors of the CYP450 isoenzyme responsible for the metabolism of each drug): doubling of QTc

Cc1cc2c(s1)Nc1ccccc1N=C2N1CCN(C)CC1 [olanzapine]
QTc prolongation (QTc interval [3]): associated with a prolongation of the QTc interval

Cc1nc2n(c(=O)c1CCN1CCC(c3noc4cc(F)ccc34)CC1)CCCC2 [risperidone]
QTc prolongation (QTc interval [3]): associated with a prolongation of the QTc interval
